Laboratory results published in patent US6972319B1, “Pituitary adenylate cyclase activating peptide (PACAP)receptor 3 (R3) agonists and their pharmacological methods of use” (priority 1999, dated 2005).
No end group written: not given here.

Assays:
PACAP-R2 = biological target: T1, PACAP-R2 (Homo sapiens, UniProt P32241); assay: Cyclic AMP SPA on CHO cells transfected with PACAP-R2; assay type: cell-based; settings: cAMP SPA, concentration at which 50% of maximum PACAP27 activity is achieved, NA = no detectable activities, read-out: R2 EC50
T1 construct: expressed in transfected cells; host or cells: CHO cells
T1 sequence (P32241 31-457): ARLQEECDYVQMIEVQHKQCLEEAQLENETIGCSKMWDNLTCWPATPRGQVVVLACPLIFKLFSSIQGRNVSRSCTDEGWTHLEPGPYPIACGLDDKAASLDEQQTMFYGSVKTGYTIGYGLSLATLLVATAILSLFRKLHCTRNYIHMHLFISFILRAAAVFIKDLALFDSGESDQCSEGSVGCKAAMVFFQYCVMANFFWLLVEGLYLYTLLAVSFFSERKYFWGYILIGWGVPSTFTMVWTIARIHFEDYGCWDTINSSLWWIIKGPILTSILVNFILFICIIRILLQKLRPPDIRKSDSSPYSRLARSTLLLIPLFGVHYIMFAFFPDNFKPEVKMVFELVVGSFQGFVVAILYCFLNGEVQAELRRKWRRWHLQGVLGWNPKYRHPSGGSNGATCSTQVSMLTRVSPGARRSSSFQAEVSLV
Protocol: (§1) CHO cells expressing the PACAP R3 were plated in 96-well plates (Costar) at 8×10^4 cell/well and grown at 37 C. for 24 hours in α MEM+nucleosides+glutamine (Giobco BRL), 10% FBS, 100 μg/ml Pen/Strep, 0.3 mg/ml glutamine, 1 mM HEPES, 0.5 mg/ml Geneticin (Gibco BRL). The media was removed and the plates were washed with PBS. The cells were incubated with a peptide, in Hepes-PBS-BSA with 0.4 mg/mlSoybean Trypsin Inhibitor, 0.5 mg/ml Bacitracin, 100 uM IBMX, for 15 min at 37 C. Cyclic AMP in the cell extracts was quantitated using the cAMP SPA direct screening assay system (Amersham Pharmacia Biotech Inc, Piscataway, N.J.,). The peptides shown in Table 3 were assayed for cAMP activity.
(§2) EC50 is defined as the concentration of the polypeptide at which 50% of maximum PACAP27 activity is achieved. “NA” denotes no detectable activities. “R3 Selectivity” is derived from the ratio of EC50 at R2 versus EC50 at R3.

PACAP-R3 = biological target: T2, PACAP-R3 (Homo sapiens, UniProt P41587); assay: Cyclic AMP SPA on CHO cells expressing PACAP R3; assay type: cell-based; design: expressed in transfected cells; host or cells: CHO cells (Geneticin selection); settings: for EC50: cAMP SPA, CHO cells transfected with PACAP-R3, concentration at which 50% of maximum PACAP27 activity is achieved, NA = no detectable activities, read-out: R3 EC50; for R3 Selectivity: ratio of EC50 at R2 versus EC50 at R3
T2 sequence (P41587 24-438): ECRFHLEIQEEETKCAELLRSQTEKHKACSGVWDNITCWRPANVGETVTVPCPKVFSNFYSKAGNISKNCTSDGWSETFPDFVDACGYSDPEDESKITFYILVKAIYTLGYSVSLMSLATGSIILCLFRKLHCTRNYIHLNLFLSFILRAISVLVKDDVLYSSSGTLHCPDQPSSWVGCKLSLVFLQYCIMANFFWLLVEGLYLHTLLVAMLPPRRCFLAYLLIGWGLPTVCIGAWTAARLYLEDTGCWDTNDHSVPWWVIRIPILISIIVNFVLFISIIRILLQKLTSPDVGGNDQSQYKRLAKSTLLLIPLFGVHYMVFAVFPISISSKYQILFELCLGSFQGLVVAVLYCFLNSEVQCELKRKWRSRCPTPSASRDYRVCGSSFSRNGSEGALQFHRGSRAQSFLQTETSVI
Protocol: as §1, §2

| Molecule | EC50 (PACAP-R2) | EC50 (PACAP-R3) | R3 Selectivity (PACAP-R3) |
| --- | --- | --- | --- |
| CC[C@H](C)[C@H](NC(=O)[C@H](CO)NC(=O)[C@H](CC(N)=O)NC(=O)[C@H](CC(C)C)NC(=O)[C@H](Cc1ccc(O)cc1)NC(=O)[C@H](CCCCN)NC(=O)[C@H](CCCCN)NC(=O)[C@@H](NC(=O)[C@H](C)NC(=O)[C@H](CCSC)NC(=O)[C@H](CCC(N)=O)NC(=O)[C@H](CCCCN)NC(=O)[C@H](CCCNC(=N)N)NC(=O)[C@H](CC(C)C)NC(=O)[C@H](CCCNC(=N)N)NC(=O)[C@@H](NC(=O)[C@H](Cc1ccc(O)cc1)NC(=O)[C@H](CC(N)=O)NC(=O)[C@H](CC(=O)O)NC(=O)[C@@H](NC(=O)[C@H](Cc1ccccc1)NC(=O)[C@@H](NC(=O)[C@H](C)NC(=O)[C@H](CC(=O)O)NC(=O)[C@H](CO)NC(=O)[C@@H](N)Cc1c[nH]cn1)C(C)C)[C@@H](C)O)[C@@H](C)O)C(C)C)C(=O)N[C@@H](CCCCN)C(=O)N[C@@H](CC(N)=O)C(=O)N[C@@H](CCCCN)C(=O)N[C@@H](CCCNC(=N)N)C(=O)N[C@@H](Cc1ccc(O)cc1)C(=O)O [Peptide R3P59] | 10 nM | 0.15 nM | 70 |
| CC[C@H](C)[C@H](NC(=O)[C@H](CO)NC(=O)[C@H](CC(N)=O)NC(=O)[C@H](CC(C)C)NC(=O)[C@H](Cc1ccc(O)cc1)NC(=O)[C@H](CCCCN)NC(=O)[C@H](CCCCN)NC(=O)[C@H](C)NC(=O)[C@H](C)NC(=O)[C@H](CCSC)NC(=O)[C@H](CCC(N)=O)NC(=O)[C@H](CCCCN)NC(=O)[C@H](CCCNC(=N)N)NC(=O)[C@H](CC(C)C)NC(=O)[C@H](CCCNC(=N)N)NC(=O)[C@@H](NC(=O)[C@H](Cc1ccc(O)cc1)NC(=O)[C@H](CC(N)=O)NC(=O)[C@H](CC(=O)O)NC(=O)[C@@H](NC(=O)[C@H](Cc1ccccc1)NC(=O)[C@@H](NC(=O)[C@H](C)NC(=O)[C@H](CC(=O)O)NC(=O)[C@H](CO)NC(=O)[C@@H](N)Cc1c[nH]cn1)C(C)C)[C@@H](C)O)[C@@H](C)O)C(=O)N[C@@H](CCCCN)C(=O)N[C@@H](CC(N)=O)C(=O)N[C@@H](CCCCN)C(=O)N[C@@H](Cc1ccc(O)cc1)C(=O)O [Peptide R3P171] | 80 nM |  |  |
| Ac-HSDAVFTENYTKLRKQLAAKKYLNDLKKGGT-NH2 [Peptide R3P1] | > 100 nM | 2 nM | >50 |
| ESDGIFTDSYSRYRKQMAVKKYLAAVL-NH2 [PAC1] | 970 nM | 10 nM | 97 |
| H-HSDAVFTDNYTRLRKQLAAKKYLNDIKKNQ [Peptide R3P35] | > 100 nM | 2.6 nM | >40 |
| H-HSDAVFTDNYTRLRKQMAAKHYLNSIKNKRY [Peptide R3P74] | 90 nM | 0.6 nM | 150 |
| H-HSDAVFTDNYTRLRKQMAAKKYLNDIKKGGT [Peptide R3P20] | 330 nM | 1.4 nM | 230 |
| H-HSDAVFTDNYTRLRKQMAAKKYLNSIDNKR [Peptide R3P118] | 15 nM | 0.5 nM | 30 |
| H-HSDAVFTDNYTRLRKQMAAKKYLNSIKNKD [Peptide R3P155] | 40 nM | 0.4 nM | 100 |
| H-HSDAVFTDNYTRLRKQMAAKKYLNSIKNKH [Peptide R3P159] | 200 nM | 0.5 nM | 400 |
| H-HSDAVFTDNYTRLRKQMAAKKYLNSIQNKR [Peptide R3P127] | 300 nM | 0.5 nM | 600 |
| H-HSDAVFTDNYTRLRKQMAAKKYLNSISNKR [Peptide R3P129] | 50 nM | 1 nM | 50 |
| H-HSDAVFTDNYTRLRKQMAGKKYLNSIRNRI [rR3P190] | 220 nM | 2.2 nM | 100 |
| H-HSDAVFTDNYTRLRKQMAKKKYLNSIKNKR [Peptide R3P104] | 100 nM | 0.2 nM | 500 |
| H-HSDAVFTDNYTRLRKQMAVKKYLNSIKN [Peptide R3P42] | 0.3 nM | 0.03 nM | 10 |
| H-HSDGIFTDSYSEYRKQMAVKKYLAAVL-NH2 [PAC12] | 150 nM | 3 nM | 50 |
| H-HSDGIFTDSYSRYRKQLAAKKYLADVKKGGT [Peptide R3P37] | 71 nM | 4 nM | 18 |
| H-HSDGIFTDSYSRYRKQMAKKKYLAAVL-NH2 [PAC19] | 8 nM | 0.4 nM | 20 |
| H-HSDGIFTDSYSRYRKQMAVKKYKAAVL-NH2 [PAC23] | 170 nM | 13 nM | 13 |
| H-HSDGIFTDSYSRYRKQMAVKKYLAAVKQGGT-NH2 [Peptide R3P16] | 14 nM | 10 nM | 1.4 |

| Molecule | EC50 (PACAP-R2) | EC50 (PACAP-R3) | R3 Selectivity (PACAP-R3) |
| --- | --- | --- | --- |
| H-HSDGIFTESYSRYRKQMAVKKYLAALKKKRYKQRVKNK [Peptide R3P6] | 220 nM | 80 nM | 3 |
| HSDAVFTDNYTKLRKQLAAKKYLNDILNGGT [Peptide R3P11] | 10 nM | 3 nM | 3 |
| HSDAVFTDNYTRLRKQIAAKKYLQTIKK [Peptide R3P61] | 110 nM | 0.8 nM | 140 |
| HSDAVFTDNYTRLRKQLAAKKYLNDIKK [Peptide R3P33] | > 100 nM | 0.5 nM | >200 |
| HSDAVFTDNYTRLRKQLAAKKYLNDIKKGG [Peptide R3P31] | > 100 nM | 0.3 nM | >300 |
| HSDAVFTDNYTRLRKQLAAKKYLNDIKKQ [Peptide R3P34] | > 100 nM | 1.4 nM | >70 |
| HSDAVFTDNYTRLRKQLAAKKYLNDIKNGGT [Peptide R3P24] | 45 nM |  |  |
| HSDAVFTDNYTRLRKQLAAKKYLNDILKGGT [Peptide R3P23] | 10 nM | 0.43 nM | 23 |
| HSDAVFTDNYTRLRKQLAAKKYLNDILNGGT [Peptide R3P27] | 6.4 nM | 0.8 nM | 8 |
| HSDAVFTDNYTRLRKQLAAKKYLNSIKKGGT [Peptide R3P22] | 38 nM | 1.6 nM | 24 |
| HSDAVFTDNYTRLRKQLAAKKYLNSIKNGGT [Peptide R3P30] | 20 nM | 0.4 nM | 50 |
| HSDAVFTDNYTRLRKQLAVKKYLNDIKNGGT [Peptide R3P29] | > 100 nM | 0.5 nM | >200 |
| HSDAVFTDNYTRLRKQLAVKKYLNSIKKGGT [Peptide R3P25] | 15 nM | 0.7 nM | 20 |
| HSDAVFTDNYTRLRKQLAVKKYLNSILN [Peptide R3P46] | 0.4 nM | 0.06 nM | 7 |
| HSDAVFTDNYTRLRKQMAAHKYLNSIKNKRY [Peptide R3P73] | 50 nM | 0.3 nM | 170 |
| HSDAVFTDNYTRLRKQMAAKKYLNSIANKR [Peptide R3P116] | 20 nM | 1 nM | 20 |
| HSDAVFTDNYTRLRKQMAAKKYLNSIENKR [Peptide R3P119] | 15 nM | 0.5 nM | 30 |
| HSDAVFTDNYTRLRKQMAAKKYLNSIFNKR [Peptide R3P120] | 10 nM | 0.2 nM | 50 |
| HSDAVFTDNYTRLRKQMAAKKYLNSIHNKR [Peptide R3P122] | 10 nM | 0.2 nM | 50 |
| HSDAVFTDNYTRLRKQMAAKKYLNSIKKGGT [Peptide R3P26] | > 100 nM | 0.55 nM | >180 |
